According to patent publication US7247714B2, “Protection against oxidative stress and inflammation by a cytoprotective response element” (Atherogenics, Inc., priority 2001, dated 2007):
“Also recorded” adds a separate entry of the source.

system: p3xCPRE/Luc; test: Activation of p3xCPRE/Luc by small molecular weight organic compounds (Table 6); assay type: cell-based, human; conditions: luciferase activity 16 hours after exposure
Method: In the in vitro assay system described above, a stable HeLa cell line was generated that contains a stably-integrated copy of the CPRE-Luc gene.
HMECs and HeLa cells were transiently transfected with 1 μg of 3xCPRE-Luc and 0.1 μg of pRL-SV40. One day after transfection, cells were treated with the compounds listed in Table 6 Luciferase activities were determined 16 hours after exposure to the compounds. To generate stable HeLa cell lines that contain a stably-integrated copy of the CPRE-Luc gene, HeLa cells were transfected with p3xCPRE-Luc plus pcDNA-LacZ-Hyg (an expression vector containing the hygromycin drug resistance gene) using SuperFeet transfection reagent. Two days after transfection, cells were cultured in hygromycin (400 μg/ml)-containing selection medium until individual colonies were identified. The colonies were expanded and the presence of CPRE-Luc-containing clones was examined by inducible luciferase activity. […]

CPRE Activity: concentration to achieve a two-fold induction of CPRE activity over control	Compound
25 µM	O=C(/C=C/c1ccccc1)c1ccccc1 [B, 1,3-diphenylpropenone]
5 µM	COc1ccc(/C=C/C(=O)c2cc(C(C)(C)C)c(OC)c(C(C)(C)C)c2)cc1 [Compound C, 1-(3,5-di-tert-butyl-4-methoxyphenyl)-3-(4-methoxyphenyl)-propenone]
3 µM	COc1cc(/C=C/C(=O)c2ccc(OC)c(OC)c2OC)cc(-c2cccs2)c1OC [Compound G, 3-(3,4-Dimethoxy-5-thiophen-2-ylphenyl)-1-(2,3,4-trimethoxy-phenyl)propenone]
8 µM	COc1ccc(C(=O)/C=C/c2ccc(-c3cccs3)cc2)cc1OC [Compound I, 1-(3,4-Dimethoxy-phenyl)-3-(4-thiophen-2-ylphenyl)propenone]
2.5 µM	COc1c(C(C)(C)C)cc(C(=O)/C=C/c2ccccc2)cc1C(C)(C)C [D, 1-(3,5-Di-tert-butyl-4-methoxyphenyl)-3-phenyl-propenone]
12.5 µM	CCOc1cc(OCC)c(C(=O)/C=C/c2cc(Br)c(OC)c(OC)c2)cc1OCC [E, 3-(3-Bromo-4,5-dimethoxyphenyl)-1-(2,4,5-triethoxyphenyl)-propenone]
1 µM	COc1cc(OC)c(C(=O)/C=C/c2cc(Br)c(OC)c(OC)c2)cc1OC [F, 1-(3-Bromo-4,5-dimethoxyphenyl)-1-(2,4,5-trimethoxy-phenyl)propenone]
2 µM	COc1ccc(-c2cccs2)cc1/C=C/C(=O)c1cc(OC)c(OC)c(OC)c1 [H, 3-(2-Methoxy-5-thiophen-2-ylphenyl)-1-(3,4,5-trimethoxy-phenyl)propenone]
3 µM	COc1cc2c(cc1OC)C(=O)/C(=C/c1cc(Br)c(OC)c(OC)c1)CC2 [J, 2-(3-Bromo-4,5-dimethoxy-benzylidene)-6,7-dimethoxy-3,4-dihydro-2H-naphthalen-1-one.]
2 µM	COc1ccc(COc2ccc(C(=O)/C=C/c3cc(OC)c(OC)c(OC)c3)cc2OC)cc1 [K]
0.7 µM	COc1ccc(-c2cccs2)cc1/C=C/C(=O)c1ccc(OCc2ccccn2)c(OC)c1 [L, 1-[3-Methoxy-4-(pyridin-2-ylmethoxy)-phenyl]-3-(2-methoxy-5-thiophen-2-yl-phenyl)propenone]
2.5 µM	COc1cc(OC)c(-c2cc3ccccc3s2)cc1/C=C/C(=O)c1ccc(OC)c(OC)c1 [M, 3-(5-Benzo[b]thiophene-2-yl-2,4-dimethoxy-phenyl)-1-(3,4-dimethoxyphenyl)-propenone]
1.4 µM	COc1cc(OC)c(-c2cc3ccccc3s2)cc1/C=C/C(=O)c1cc(OC)c(OCC(=O)[O-])c(OC)c1.[Na+] [N, Sodium {4-[3-(5-benzo[b]thiophene-2-yl-2,4-dimethoxy-phenyl)acryloyl]-2,6-dimethoxyphenoxy}-acetate]
0.7 µM	COc1cc(OC)c(-c2cc3ccccc3s2)cc1/C=C/C(=O)c1cc(OC)c(O)c(OC)c1 [O, 3-(5-Benzo[b]thiophene-2-yl-2,4-dimethoxy-phenyl)-1-(4-hydroxy-3,5-dimethoxyphenyl)-propenone]
1 µM	COc1cc(OC)c(-c2cc3ccccc3s2)cc1/C=C/C(=O)c1cc(OC)c([O-])c(OC)c1.[Na+] [P, Sodium 4-[3-(5-benzo[b]thiophene-2-yl-2,4-dimethoxy-phenyl)acryloyl]-2,6-dimethoxyphenolate]
2.5 µM	COc1cc(/C=C/C(=O)c2ccc(OC)c(OC)c2OC)cc(-c2cc3ccccc3s2)c1OC [Q, 3-(3-Benzo[b]thiophene-2-yl-4,5-dimethoxy-phenyl)-1-(2,3,4-trimethoxy-phenyl)propenone]
14 µM	COc1cc(OCC(=O)[O-])c(/C=C/C(=O)c2cc(OC)c(OC)c(OC)c2)cc1-c1cc2ccccc2s1.[Na+] [R, Sodium {4-benzo[b]thiophene-2-yl-5-methoxy-2-[3-oxo-3-(3,4,5-trimethoxyphenyl)-propenyl]phenoxy}-acetate]

system: p3xCPRE/Luc; test: p3xCPRE/Luc reporter, transient transfection in HMEC cells; assay type: cell-based, human; conditions: t-BHQ 20 μM
Method: (§1) In an effort to determine the utility of the CPRE-Luc reporter construct for the identification of small molecular weight compounds that activate the CPRE, the p3xCPRE/Luc reporter was transiently transfected into both HeLa and endothelial cells (HMECs). […] Similar results were obtained in HeLa cells with both t-BHQ and compound A (FIG. 12b).
(§2) HMECs and HeLa cells were transiently transfected with 1 μg of 3xCPRE-Luc and 0.1 μg of pRL-SV40. One day after transfection, cells were treated with t-BHQ or compound A. Luciferase activities were determined 16 hours after exposure to tBHQ. To generate stable HeLa cell lines that contain a stably-integrated copy of the CPRE-Luc gene, HeLa cells were transfected with p3xCPRE-Luc plus pcDNA-LacZ-Hyg (an expression vector containing the hygromycin drug resistance gene) using SuperFect transfection reagent. Two days after transfection, cells were cultured in hygromycin (400 μg/ml)-containing selection medium until individual colonies were identified. The colonies were expanded and the presence of CPRE-Luc-containing clones was examined by inducible luciferase activity. All experiments are an average of at least three independent determinations for each experimental sample.

Compound	p3xCPRE/Luc activity
CC(C)(C)c1cc(O)ccc1O [t-BHQ, reference compound]	induced CPRE-dependent gene expression; also recorded: significantly increased

system: p3xCPRE/Luc; test: p3xCPRE/Luc reporter, transient transfection in HeLa cells; assay type: cell-based, human; conditions: t-BHQ 25 μM
Method: HMEC cells (passage 20) and HeLa cells were seeded into 6 well plates and were grown to approximately 60-70% confluency. Cells were transfected with 2 μg (HeLa) or 1 μg (HMEC) each of p3xCPRE/Luc reporter and Nrf-2 expression vector (an expression vector containing the full-length murine Nrf-2 gene under the control of the CMV promoter (Asakura & Karino (1990) Circ Res, 66:1045-1066). Cells were cultured for an additional 48 hours, and luciferase activity was determined (Promega). An average of at least three independent determinations were made for each experimental sample. Results are expressed as ratio of firefly/renilla luciferase.
as §1, §2

Compound	p3xCPRE/Luc activity
CC(C)(C)c1cc(O)ccc1O [t-BHQ, reference compound]	significantly increased

system: murine model of allergen-induced peritonitis; test: Murine model of allergen-induced peritonitis (Type 1 hypersensitivity), eosinophil recruitment; assay type: in vivo, mouse; conditions: Compound G 50 mg/kg i.v., peritoneal fluid 48 hrs post-challenge
Method: To evaluate the anti-inflammatory potential of compound A, a murine model of Type 1 hypersensitivity was used. In this model mice are sensitized to ovalbumin and subsequently challenged with ovalbumin by intraperitoneal injection. This leads to eosinophil recruitment and accumulation in the peritoneal cavity 24-48 hours after the challenge.
6-8 week old Balb/c mice (weighing 20-30 g) were given subcutaneous injections of ovalbumin in alum (0.4 ml of 100 μg ovalbumin and 3.3 mg of Alum Inject) on days 0 and 7. The mice were challenged on day 14 with an intraperitoneal injection of ovalbumin (10 μg in 0.2 ml saline). The mice were sacrificed and peritoneal lavage fluid collected 48 hours after the challenge. The peritoneal fluid was concentrated and slide smears made using a cytospin centrifuge. Slides were stained with Diff-Quik and differential counts obtained by counting 300 cells. Compound A was administered by intravenous injection, in a vehicle composed of 95% Liposyn and 5% Tween 20, 4 or 1 hour prior to challenge. Compound A was compared to dexamethosone administered orally at a dose of 2.5 mg/kg/d.
In a common allergic inflammation, balb/C mice were divided into two groups: control/vehicle and Compound G treated. They were then sensitized to ovalbumin on days 0 and 7 with a subcutaneous injection of ovalbumin absorbed in aluminum hydroxide. The treated group was dosed i.v. 50 mg/kg in liposyn/tween and vehicle one day prior to challenge. The mice were then challenged with an intraperitoneal injection of ovalbumin on day 14 and sacrificed 48 hrs post-challenge. Peritoneal fluid was collected and spun down onto slides. Slides were stained with DiffQuik and a differential performed.

Compound	Inhibition of eosinophilia compared with vehicle controls
COc1cc(/C=C/C(=O)c2ccc(OC)c(OC)c2OC)cc(-c2cccs2)c1OC [Compound G, 3-(3,4-Dimethoxy-5-thiophen-2-ylphenyl)-1-(2,3,4-trimethoxy-phenyl)propenone]	39%

same assay, conditions: Compound G 50 mg/kg/d intravenous

Compound	Eosinophil levels in peritoneal fluid (percent eosinophils)
COc1cc(/C=C/C(=O)c2ccc(OC)c(OC)c2OC)cc(-c2cccs2)c1OC [Compound G, 3-(3,4-Dimethoxy-5-thiophen-2-ylphenyl)-1-(2,3,4-trimethoxy-phenyl)propenone]	significantly decreased
